# From patent US11033598B2, “Pharmaceutical composition for preventing or treating hearing loss comprising oat extract as an active ingredient” (priority 2016, dated 2021)
# Key:
# [1] = test system: hearing loss mouse model (noise-induced hearing loss); experiment: Hearing threshold by auditory brainstem response (ABR) after exposure to noise; type: in vivo; conditions: mice; for effect of preserving the hearing threshold (ABR, tone burst): 4 kHz, 8 kHz, 16 kHz TB
# Procedure: In order to verify a hearing preservation effect of avenanthramide before exposure to noise, an experiment for measuring a hearing threshold was performed using an auditory brainstem response. A method of measuring the auditory brainstem response (ABR) is a method of evaluating a response to a sound by measuring electric energy when a sound stimulus is transmitted as an electrical signal in the auditory nerve. When the sound reaches the auditory nerve through the outer ear, the middle ear, and the cochlea, the response reflects all states of the outer ear, the middle ear, and the cochlea and reflects the actual sound energy to which the sound energy reaches the brain. The hearing threshold refers to a minimum sensory point of sound that is barely audible, and in a normal mouse, the response is observed even on the small sound having the average of 20 to 30 dB.
# Mice to which avenanthramide was administered and untreated control mice were divided into four groups of eight mice, respectively, and evaluated. The noise was exposed with a pure tone of 90 dB of 8 KHz for 6 hours and 10 μg/kg of avenanthramide was intraperitoneally administered to mice before 6 hours and 24 hours of exposure to noise. During the auditory brainstem response test, the stimulus sound was evaluated by lowering the sound gradually from 90 dB by 5 dB with a click sound of a broadband stimulus sound, and the smallest sound of the response was set as the threshold. In addition, the hearing threshold was measured with a stimulus sound of 4 kHz, 8 kHz, 16 kHz, 24 kHz, and 32 kHz tone burst (TB), and in order to verify a hearing preservation effect of avenanthramide, the experiment for measuring the hearing threshold was performed in the same manner as above. The result was illustrated in FIG. 7.
# (§1) The noise was exposed with a pure tone of 90 dB 8 KHz for 6 hours and 10 μg/kg of avenanthramide was intraperitoneally administered to mice before 6 hours and 24 hours of exposure to noise. Then, the ABR test was performed after two weeks of noise induction in the same manner as Experimental Example 1-1 and the result was illustrated in FIG. 8.
# as §1, with “95” for “90”, “9.” for “8.”
# [2] = test system: HEI-OC1 cell line; experiment: DCF-DA assay of ROS generation in gentamicin hearing loss model cells; conditions: for ROS generation rate (DCF-DA): Table 2; for protection of hearing loss (DCF-DA test) as compared to gentamicin only: 0.1 μg/ml to 2 μg/ml, 24 hours before gentamicin 4 μM; for protection of hearing loss (DCF-DA test) as compared to gentamicin only / increase rate of the DCF fluorescence intensity: HEI-OC1; for increase rate of the DCF fluorescence intensity: 24 hrs
compound,measurement,setting,value
"O=C(/C=C/c1ccc(O)c(O)c1)Nc1ccc(O)cc1C(=O)O [AVN, avenanthramide-C]","lowering of hearing threshold (ABR, click) versus exposure to noise without treatment","[1]; 10 μg/kg i.p. 6 and 24 hours before noise 90 dB 8 KHz 6 hours, ABR two weeks after noise, FIG. 8",≥ 20 dB
same,"lowering of hearing threshold (ABR, click) versus exposure to noise without treatment","[1]; 10 μg/kg i.p. 6 and 24 hours before noise 95 dB 8 KHz 6 hours, ABR two weeks after noise, FIG. 9",≥ 40 dB
same,"hearing threshold (ABR, click) versus control","[1]; 10 μg/kg i.p. before noise 95 dB 8 KHz 6 hours, ABR two weeks after noise, FIG. 9",almost the same threshold value as the control
same,"hearing threshold (ABR, click) versus exposure to noise without treatment","[1]; 10 μg/kg intraperitoneally 6 hours and 24 hours before noise (90 dB, 8 KHz, 6 hours), FIG. 7",lower threshold
same,"effect of preserving the hearing threshold (ABR, tone burst)","[1]; 10 μg/kg i.p. before noise 90 dB, FIG. 7",the effect of preserving the hearing threshold was high
same,"effect of preserving the hearing threshold (ABR, tone burst)","[1]; noise 90 dB, ABR two weeks after noise, FIG. 8",the effect of preserving the hearing threshold was high
same,"effect of preserving the hearing threshold (ABR, tone burst)","[1]; noise 95 dB, ABR two weeks after noise, FIG. 9",the effect of preserving the hearing threshold was high
same,increase rate of DCF fluorescent intensity,[2]; AVN 0.5 μM 3 hr + GM 3 μM,45.85
same,increase rate of DCF fluorescent intensity,[2]; AVN 0.5 μM 12 hr + GM 3 μM,45.12
same,increase rate of DCF fluorescent intensity,[2]; AVN 0.5 μM 24 hr + GM 3 μM,34.89
same,ROS generation rate (DCF-DA),[2]; AVN 1 μM alone,4.43
same,ROS generation rate (DCF-DA),[2]; AVN 1 μM pretreated 24 hrs + GM 3 μM,13.46
same,increase rate of DCF fluorescent intensity,"[2]; AVN only (0.5 μM), Table 3",32.27
same,increase rate of DCF fluorescent intensity,[2]; GM 4 μM + AVN 0.1 μM (24 hrs pretreatment),7.62
same,increase rate of DCF fluorescent intensity,[2]; GM 4 μM + AVN 0.2 μM,5.4
same,increase rate of DCF fluorescent intensity,[2]; GM 4 μM + AVN 0.4 μM,5.43
same,increase rate of DCF fluorescent intensity,[2]; GM 4 μM + AVN 0.6 μM,5.36
same,increase rate of DCF fluorescent intensity,[2]; GM 4 μM + AVN 0.8 μM,1.31
same,increase rate of DCF fluorescent intensity,[2]; GM 4 μM + AVN 1.0 μM,1.62
same,increase rate of DCF fluorescent intensity,[2]; GM 4 μM + AVN 1.5 μM,2.06
same,increase rate of DCF fluorescent intensity,[2]; GM 4 μM + AVN 2.0 μM,1.26
same,increase rate of DCF fluorescent intensity,[2]; GM 4 μM + AVN 4.0 μM,1.1
same,increase rate of DCF fluorescent intensity,[2]; GM 4 μM + AVN 6.0 μM,0.81
same,ROS generated by gentamicin,"[2]; as the avenanthramide treatment time increased (3, 12, 24 hr)",decreased
same,effect on the damage by gentamicin,"[2]; avenanthramide 0.1 μM, GM 4 μM",did not affect the damage by gentamicin
same,decrease of the amount of ROS as compared to no avenanthramide,"[2]; avenanthramide 0.2 μM, GM 4 μM",≥ 50%
same,amount of ROS generated by gentamicin,[2]; avenanthramide pretreated for 24 hours,decreased
same,benefit in reducing the ROS generated by gentamicin,[2]; treatment of avenanthramide for 24 hours or more,no particular benefit
same,effect of suppressing hearing loss caused by the ROS,[2]; treatment time of avenanthramide 24 hours or more,up to the same level as a control
"O=C1O[C@H]([C@@H](O)CO)C(O)=C1O [ascorbic acid, reference compound]",protection of hearing loss (DCF-DA test) as compared to gentamicin only,[2],"not verified that when the ascorbic acid was administered, particular protection of hearing loss was shown"
β-glucan [reference compound],protection of hearing loss (DCF-DA test) as compared to gentamicin only,[2],"not verified that when the β-glucan was administered, particular protection of hearing loss was shown"
gentamicin [reference compound],ROS generation rate (DCF-DA),[2]; GM 3 μM alone,24.39
same,increase rate of DCF fluorescent intensity,"[2]; GM 3 μM alone, Table 3",56.06
same,increase rate of DCF fluorescent intensity,"[2]; GM 4 μM only, Table 4",11.51
same,increase rate of the DCF fluorescence intensity,[2]; Gentamicin 2 μM,7.64%
same,increase rate of the DCF fluorescence intensity,[2]; Gentamicin 3 μM,12.59%
same,increase rate of the DCF fluorescence intensity,[2]; Gentamicin 4 μM,20.35%
same,generation amount of the ROS,[2]; as the treatment amount of gentamicin was increased (0-4 μM),increased
same,cell death,[2]; gentamicin of 10 μM or more,the cells were almost died
